Article PMC5809175 (Investigational new drugs, 2016)

Key:
CYP2C19 and CYP3A4/5 = conditions: cited from earlier work
[1] = cited from earlier work
[2] = Phase I 3 + 3 dose escalation and expansion: DLT, MTD and RP2D; assay type: in vivo, human; conditions: extensive CYP2C19 metabolizers
hepatocellular carcinoma = conditions: patients with hepatocellular carcinoma, p=0.04, cited from earlier work
clinical = conditions: human, in vivo
CYP3A4 = conditions: cited from earlier work

| SMILES | metabolizing enzymes (CYP2C19 and CYP3A4/5) | RP2D in CYP2C19 poor metabolizers [1] | MTD and RP2D, tivantinib ([2]; oral, in combination with temsirolimus) | time to progression, HR vs placebo (hepatocellular carcinoma; 90% CI 0.43–0.94) | time to progression (hepatocellular carcinoma; placebo 1.4 months) | Dose adjusted AUC0–12, geometric mean (clinical) | Dose adjusted Cmax, geometric mean (clinical) | MTD and RP2D, temsirolimus ([2]; intravenous, in combination with tivantinib) | metabolizing enzymes (CYP3A4) | AUC0–∞, ratio (%) geometric means (clinical) | Cmax, ratio (%) geometric means (clinical) | AUC(0-inf) (clinical; AUC0–∞, geometric mean) | Cmax (clinical; Cmax, geometric mean) |
| --- | --- | --- | --- | --- | --- | --- | --- | --- | --- | --- | --- | --- | --- |
| O=C1NC(=O)[C@@H](c2cn3c4c(cccc24)CCC3)[C@@H]1c1c[nH]c2ccccc12 [tivantinib] | metabolized primarily by CYP2C19 and partially by CYP3A4/5 | 240 mg twice daily | 240 mg twice daily | 0.64 | 1.6 months | 67.78 ng·h/mL/mg | 9.27 ng/mL/mg |  |  |  |  |  |  |
| CO[C@H]1C[C@@H]2CC[C@@H](C)[C@@](O)(O2)C(=O)C(=O)N2CCCC[C@H]2C(=O)O[C@H]([C@H](C)C[C@@H]2CC[C@@H](OC(=O)C(C)(CO)CO)[C@H](OC)C2)CC(=O)[C@H](C)/C=C(\C)[C@@H](O)[C@@H](OC)C(=O)[C@H](C)C[C@H](C)/C=C/C=C/C=C/1C [temsirolimus] |  |  |  |  |  |  |  | 20 mg weekly | primarily metabolized by CYP3A4 | 1.09% | 0.94% | 1340 ng·h/mL | 363 ng/mL |
